Assay results reported in ChEMBL document CHEMBL1201862, “PubChem BioAssay data set” (2004).
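These data come from cells grown in 96-well plates and exposed to compound for 48 hours at five concentrations. The concentration for 50% growth inhibition is given as GI50.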 Active and inactive are the calls of the source. Rule as the data show it: active = GI50 up to about 1.1 µM and inactive = higher.

How the values were obtained:
Experiment in all cases: inhibition of tumour cell growth, NCI panel, 48 h
A549 = system: A549
CCRF-CEM = system: CCRF-CEM
EKVX = system: EKVX
HCC 2998 = system: HCC 2998
HL-60 = system: HL-60
KM12 = system: KM12
MOLT-4 = system: MOLT-4
OVCAR-3 = system: OVCAR-3
SK-MEL-2 = system: SK-MEL-2
SN12C = system: SN12C
SW-620 = system: SW-620
ACHN = system: ACHN
U-251 = system: U-251
A498 = system: A498
OVCAR-5 = system: OVCAR-5

Measured: GI50

N#CCCc1nc2ccc(Br)cc2c(=O)n1CCO
inactive: A549 > 100 µM | CCRF-CEM > 100 µM | EKVX > 100 µM | HCC 2998 > 100 µM | HL-60 > 100 µM | KM12 > 100 µM | MOLT-4 > 100 µM | OVCAR-3 > 100 µM | SK-MEL-2 > 100 µM | SN12C > 100 µM | SW-620 > 100 µM

COc1cccc(-c2cc(O)c3cc(OC)c(OC)cc3n2)c1
inactive: A549 47.4 µM | ACHN > 100 µM | CCRF-CEM 31.8 µM | EKVX 97.7 µM | HCC 2998 87.1 µM | HL-60 33.1 µM | KM12 24.2 µM | MOLT-4 40.6 µM | SN12C 68.7 µM | SW-620 32 µM | U-251 60.5 µM

Cc1cccc(C(=O)O)c1C(=O)c1cccc2ccccc12
inactive: A498 88.3 µM | A549 > 100 µM | ACHN > 100 µM | CCRF-CEM > 100 µM | EKVX > 100 µM | HCC 2998 > 100 µM | KM12 > 100 µM | MOLT-4 33.1 µM | OVCAR-3 > 100 µM | OVCAR-5 > 100 µM | SK-MEL-2 98.2 µM | SN12C > 100 µM | SW-620 > 100 µM | U-251 > 100 µM

O=[N+]([O-])c1cccc(C2SCc3nc4ccccc4n32)c1 (stereo not given)
inactive: A498 77.6 µM | A549 > 100 µM | ACHN 62.7 µM | CCRF-CEM > 100 µM | EKVX 66.2 µM | HL-60 54.3 µM | KM12 > 100 µM | MOLT-4 59.4 µM | OVCAR-5 39.3 µM | SK-MEL-2 > 100 µM | SN12C 97.3 µM | SW-620 > 100 µM | U-251 > 100 µM

NC(=O)NC1C(C(N)=O)N(Cc2ccccc2)C(=O)N1Cc1ccccc1 (stereo not given)
inactive: A549 > 100 µM | ACHN > 100 µM | CCRF-CEM > 100 µM | EKVX > 100 µM | HCC 2998 > 100 µM | HL-60 > 100 µM | KM12 > 100 µM | MOLT-4 > 100 µM | OVCAR-3 > 100 µM | OVCAR-5 40.7 µM | SK-MEL-2 > 100 µM | SW-620 > 100 µM | U-251 > 100 µM

N#CC(NNC(=O)Cc1ccccc1)c1ccc([N+](=O)[O-])cc1 (stereo not given)
inactive: A549 > 100 µM | ACHN > 100 µM | CCRF-CEM > 100 µM | HL-60 > 100 µM | KM12 > 100 µM | MOLT-4 > 100 µM | OVCAR-5 > 100 µM | SK-MEL-2 > 100 µM | SN12C > 100 µM | SW-620 > 100 µM | U-251 > 100 µM

CC(C)(C)C(=O)O[C@@H]1COC2C(O)COC21 (stereo not given in full)
inactive: A549 > 100 µM | ACHN > 100 µM | CCRF-CEM > 100 µM | HCC 2998 > 100 µM | HL-60 > 100 µM | KM12 > 100 µM | MOLT-4 19.7 µM | OVCAR-3 > 100 µM | OVCAR-5 > 100 µM | SN12C > 100 µM | SW-620 > 100 µM | U-251 > 100 µM

CC(C)C(/C=C/c1ccccc1)=N\NC(=O)N/N=C(/C=C/c1ccccc1)C(C)C
inactive: A549 23.1 µM | ACHN 26.9 µM | CCRF-CEM 28.2 µM | EKVX 8.36 µM | HCC 2998 16 µM | HL-60 15.2 µM | KM12 36.3 µM | MOLT-4 16.4 µM | OVCAR-5 38.2 µM | SK-MEL-2 19.9 µM | SN12C 17.3 µM | SW-620 37 µM | U-251 32.3 µM

Cc1cccc(CC(C)(C)C)c1NC(=O)C(=O)C(C(=O)c1ccc2ccccc2c1)C1OC(=O)c2ccccc21 (stereo not given)
inactive: A498 13.2 µM | A549 12.4 µM | ACHN 18 µM | EKVX 20.7 µM | HCC 2998 12.1 µM | KM12 14.5 µM | OVCAR-3 58.5 µM | OVCAR-5 15.2 µM | SK-MEL-2 14.4 µM | SN12C 15.8 µM | SW-620 6.78 µM | U-251 4.79 µM
